The results in this text go back to patent US20250171461A1, “STIMULATOR OF INTERFERON GENES (STING) MODULATORS, AND COMPOSITIONS AND METHODS THEREOF” (Geode Therapeutics Inc., priority 2022, published 2025).

This test concerns the target T1, human HAQ STING isoform (hSTING HAQ) (Homo sapiens, UniProt Q86WV6, G230A/H232R/R293Q/R71H).
T1 construct: THP1 cells express the naturally occurring human HAQ STING isoform (hSTING HAQ); host or cells: THP1
The experiment in a line: IFN-β mRNA level in THP1 cells (qPCR, STING agonist cellular activity). The test is classed as cell-based. The note with it: compound at 3.6 μM, 2 hrs, IFNβ expression normalized against GAPDH by the 2^-ΔΔCT method, DMSO = 1.0. Put shortly: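 THP1 cells were seeded at 9×10^5 per well, incubated overnight, then treated with compound at 3.6 μM final (0.1% DMSO control) for 2 hrs at 37 °C. IFN-β mRNA was measured by SYBR Green qPCR, normalised to GAPDH by the 2^−ΔΔCT method, in triplicate.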
(In general: Real-time PCR tracks product formation cycle by cycle.)

Each structure is given as a SMILES string.

T1 sequence (Q86WV6 whole entry R71H/G230A/H232R/R293Q, canonical isoform): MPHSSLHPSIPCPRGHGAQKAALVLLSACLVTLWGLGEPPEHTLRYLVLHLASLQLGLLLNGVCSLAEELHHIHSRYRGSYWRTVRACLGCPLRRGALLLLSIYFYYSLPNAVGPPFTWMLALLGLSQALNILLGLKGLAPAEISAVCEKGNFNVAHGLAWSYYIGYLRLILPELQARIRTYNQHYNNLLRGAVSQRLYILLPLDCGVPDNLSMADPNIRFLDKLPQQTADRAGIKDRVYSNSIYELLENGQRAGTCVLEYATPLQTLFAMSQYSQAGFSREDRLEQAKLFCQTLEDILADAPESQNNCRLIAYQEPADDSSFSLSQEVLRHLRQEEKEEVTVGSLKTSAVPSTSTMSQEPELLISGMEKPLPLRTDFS

In the case of `Nc1ccc(N2CCC[C@H](N(Cc3ccccc3)Cc3cn4c5c(c(F)c(F)cc5c3=O)OCC4)C2)cn1` [Compound 72, (S)-6-(((1-(6-aminopyridin-3-yl)piperidin-3-yl)(benzyl)amino)methyl)-9,10-difluoro-2,3-dihydro-7H-[1,4]oxazino[2,3,4-ij]quinolin-7-one], the “Relative mRNA INFβ/GAPDH THP 1” value is reported as 31.9.
The value for `COc1ccc(CN(Cc2cn3c4c(c(F)c(F)cc4c2=O)OCC3)[C@H]2CCCN(c3ccc(N)nc3)C2)c(OC)c1` [Compound 73, (S)-6-(((1-(6-aminopyridin-3-yl)piperidin-3-yl)(2,4-dimethoxybenzyl)amino)methyl)-9,10-difluoro-2,3-dihydro-7H-[1,4]oxazino[2,3,4-ij]quinolin-7-one] was 7.9; that for `Nc1ccc(N2CCC[C@H](N(Cc3ccc(C(F)(F)F)cc3F)Cc3cn4c5c(c(F)c(F)cc5c3=O)OCC4)C2)cn1` [Compound 74, (S)-6-(((1-(6-aminopyridin-3-yl)piperidin-3-yl)(2-fluoro-4-(trifluoromethyl)benzyl)amino)methyl)-9,10-difluoro-2,3-dihydro-7H-[1,4]oxazino[2,3,4-ij]quinolin-7-one] was 1.4; that for `Nc1ccc(N2CCC[C@H](N(Cc3ccccn3)Cc3cn4c5c(c(F)c(F)cc5c3=O)OCC4)C2)cn1` [Compound 75, (S)-6-(((1-(6-aminopyridin-3-yl)piperidin-3-yl)(pyridin-2-ylmethyl)amino)methyl)-9,10-difluoro-2,3-dihydro-7H-[1,4]oxazino[2,3,4-ij]quinolin-7-one] was 1.1.
The result for `Nc1ccc(N2CCC[C@H](N(Cc3ccc(Cl)nc3)Cc3cn4c5c(c(F)c(F)cc5c3=O)OCC4)C2)cn1` [Compound 76, (S)-6-(((1-(6-aminopyridin-3-yl)piperidin-3-yl)((6-chloropyridin-3-yl)methyl)amino)methyl)-9,10-difluoro-2,3-dihydro-7H-[1,4]oxazino[2,3,4-ij]quinolin-7-one] reads 0.8.
The result for `Nc1ccc(N2CCC[C@H](N(Cc3ccccc3F)Cc3cn4c5c(c(F)c(F)cc5c3=O)OCC4)C2)cn1` [Compound 77, (S)-6-(((1-(6-aminopyridin-3-yl)piperidin-3-yl)(2-fluorobenzyl)amino)methyl)-9,10-difluoro-2,3-dihydro-7H-[1,4]oxazino[2,3,4-ij]quinolin-7-one] reads 1.3; that for `Cc1cc(CN(Cc2cn3c4c(c(F)c(F)cc4c2=O)OCC3)[C@H]2CCCN(c3ccc(N)nc3)C2)cc(C)c1F` [Compound 78, (S)-6-(((1-(6-aminopyridin-3-yl)piperidin-3-yl)(4-fluoro-3,5-dimethylbenzyl)amino)methyl)-9,10-difluoro-2,3-dihydro-7H-[1,4]oxazino[2,3,4-ij]quinolin-7-one], 1.2; that for `Nc1ccc(N2CCC[C@H](N(Cc3ccncc3Cl)Cc3cn4c5c(c(F)c(F)cc5c3=O)OCC4)C2)cn1` [Compound 79, (S)-6-(((1-(6-aminopyridin-3-yl)piperidin-3-yl)((3-chloropyridin-4-yl)methyl)amino)methyl)-9,10-difluoro-2,3-dihydro-7H-[1,4]oxazino[2,3,4-ij]quinolin-7-one], 335.5.
As for `COc1cc(CN(Cc2cn3c4c(c(F)c(F)cc4c2=O)OCC3)[C@H]2CCCN(c3ccc(C)nc3)C2)ccn1` [Compound 80, (S)-9,10-difluoro-6-((((2-methoxypyridin-4-yl)methyl)(1-(6-methylpyridin-3-yl)piperidin-3-yl)amino)methyl)-2,3-dihydro-7H-[1,4]oxazino[2,3,4-ij]quinolin-7-one], the “Relative mRNA INFβ/GAPDH THP 1” value turned out to be 6820.3.
For `Cc1cc(CN(Cc2cn3c4c(c(F)c(F)cc4c2=O)OCC3)[C@H]2CCCN(c3cccnc3)C2)ccn1` [Compound 81, (S)-9,10-difluoro-6-((((2-methylpyridin-4-yl)methyl)(1-(pyridin-3-yl)piperidin-3-yl)amino)methyl)-2,3-dihydro-7H-[1,4]oxazino[2,3,4-ij]quinolin-7-one], the “Relative mRNA INFβ/GAPDH THP 1” value is given as 5719.5.
Consider `Cc1cc(CN(Cc2cn3c4c(c(F)c(F)cc4c2=O)OCC3)[C@H]2CCCN(c3cnccn3)C2)ccn1` [Compound 83, (S)-9,10-difluoro-6-((((2-methylpyridin-4-yl)methyl)(1-(pyrazin-2-yl)piperidin-3-yl)amino)methyl)-2,3-dihydro-7H-[1,4]oxazino[2,3,4-ij]quinolin-7-one], for which the “Relative mRNA INFβ/GAPDH THP 1” value worked out at 1.2.
As for `COc1cc(CN(Cc2cn3c4c(c(F)c(F)cc4c2=O)OCC3)[C@H]2CCCN(c3cnccn3)C2)ccn1` [Compound 84, (S)-9,10-difluoro-6-((((2-methoxypyridin-4-yl)methyl)(1-(pyrazin-2-yl)piperidin-3-yl)amino)methyl)-2,3-dihydro-7H-[1,4]oxazino[2,3,4-ij]quinolin-7-one], the “Relative mRNA INFβ/GAPDH THP 1” value came to 0.9.
The result for `O=c1c(CN(Cc2ccncn2)[C@H]2CCCN(c3cnccn3)C2)cn2c3c(c(F)c(F)cc13)OCC2` [Compound 85, (S)-9,10-difluoro-6-(((1-(pyrazin-2-yl)piperidin-3-yl)(pyrimidin-4-ylmethyl)amino)methyl)-2,3-dihydro-7H-[1,4]oxazino[2,3,4-ij]quinolin-7-one] reads 0.9; that for `COc1cnccc1CN(Cc1cn2c3c(c(F)c(F)cc3c1=O)OCC2)[C@H]1CCCN(c2cnccn2)C1` [Compound 86, (S)-9,10-difluoro-6-((((3-methoxypyridin-4-yl)methyl)(1-(pyrazin-2-yl)piperidin-3-yl)amino)methyl)-2,3-dihydro-7H-[1,4]oxazino[2,3,4-ij]quinolin-7-one], 1.1; that for `O=c1c(CN(Cc2ccncc2F)[C@H]2CCCN(c3cnccn3)C2)cn2c3c(c(F)c(F)cc13)OCC2` [Compound 87, (S)-9,10-difluoro-6-((((3-fluoropyridin-4-yl)methyl)(1-(pyrazin-2-yl)piperidin-3-yl)amino)methyl)-2,3-dihydro-7H-[1,4]oxazino[2,3,4-ij]quinolin-7-one], 1.2.
The value for `COC(=O)c1cc(CN(Cc2cn3c4c(c(F)c(F)cc4c2=O)OCC3)[C@H]2CCCN(c3cnccn3)C2)ccn1` [Compound 88, methyl (S)-4-((((9,10-difluoro-7-oxo-2,3-dihydro-7H-[1,4]oxazino[2,3,4-ij]quinolin-6-yl)methyl)(1-(pyrazin-2-yl)piperidin-3-yl)amino)methyl)picolinate] was 0.8; that for `N#Cc1cc(CN(Cc2cn3c4c(c(F)c(F)cc4c2=O)OCC3)[C@H]2CCCN(c3cnccn3)C2)ccn1` [Compound 89, (S)-4-((((9,10-difluoro-7-oxo-2,3-dihydro-7H-[1,4]oxazino[2,3,4-ij]quinolin-6-yl)methyl)(1-(pyrazin-2-yl)piperidin-3-yl)amino)methyl)picolinonitrile] was 1.3.
The value for `CCOc1cc(CN(Cc2cn3c4c(c(F)c(F)cc4c2=O)OCC3)[C@H]2CCCN(c3cnccn3)C2)ccn1` [Compound 90, (S)-6-((((2-ethoxypyridin-4-yl)methyl)(1-(pyrazin-2-yl)piperidin-3-yl)amino)methyl)-9,10-difluoro-2,3-dihydro-7H-[1,4]oxazino[2,3,4-ij]quinolin-7-one] was 1.7; that for `CNC(=O)c1cc(CN(Cc2cn3c4c(c(F)c(F)cc4c2=O)OCC3)[C@H]2CCCN(c3cnccn3)C2)ccn1` [Compound 91, (S)-4-((((9,10-difluoro-7-oxo-2,3-dihydro-7H-[1,4]oxazino[2,3,4-ij]quinolin-6-yl)methyl)(1-(pyrazin-2-yl)piperidin-3-yl)amino)methyl)-N-methylpicolinamide] was 1.0.
For the compound `NC(=O)c1cc(CN(Cc2cn3c4c(c(F)c(F)cc4c2=O)OCC3)[C@H]2CCCN(c3cnccn3)C2)ccn1` [Compound 92, (S)-4-((((9,10-difluoro-7-oxo-2,3-dihydro-7H-[1,4]oxazino[2,3,4-ij]quinolin-6-yl)methyl)(1-(pyrazin-2-yl)piperidin-3-yl)amino)methyl)picolinamide], the “Relative mRNA INFβ/GAPDH THP 1” value is 1.1.
The result for `CCN1CCN(c2c(F)cc3c(=O)c(CN(Cc4ccnc(OC)c4)[C@H]4CCCN(c5ccc(N)nc5)C4)cn4c3c2OCC4)CC1` [Compound 93, (S)-6-(((1-(6-aminopyridin-3-yl)piperidin-3-yl)((2-methoxypyridin-4-yl)methyl)amino)methyl)-10-(4-ethylpiperazin-1-yl)-9-fluoro-2,3-dihydro-7H-[1,4]oxazino[2,3,4-ij]quinolin-7-one] reads 411.3; that for `COc1cc(CN(Cc2cn3c4c(c(N5CCN(C)CC5)c(F)cc4c2=O)OCC3)[C@H]2CCCN(c3ccc(N)nc3)C2)ccn1` [Compound 94, (S)-6-(((1-(6-aminopyridin-3-yl)piperidin-3-yl)((2-methoxypyridin-4-yl)methyl)amino)methyl)-9-fluoro-10-(4-methylpiperazin-1-yl)-2,3-dihydro-7H-[1,4]oxazino[2,3,4-ij]quinolin-7-one], 248.8; that for `Cc1cncc(CN(Cc2cn3c4c(c(N5CCN(C)CC5)c(F)cc4c2=O)OCC3)[C@@H]2CCCN(c3cnccn3)C2)c1` [Compound 95, (R)-9-fluoro-10-(4-methylpiperazin-1-yl)-6-((((5-methylpyridin-3-yl)methyl)(1-(pyrazin-2-yl)piperidin-3-yl)amino)methyl)-2,3-dihydro-7H-[1,4]oxazino[2,3,4-ij]quinolin-7-one], 1.2.
